Measured values reported in patent US7175844B2, “Methods of modulating fibrosis” (Joslin Diabetes Center, Inc., priority 2000, dated 2007).
Where two headings read alike, the source gives them in different places.

Columns and labels:
Flt1 (VEGFR1) (bovine) = assay: cell-based or functional assay
[1] = tested on: VEGF-induced CTGF mRNA expression; assay: Effect on VEGF-induced CTGF mRNA expression in BREC; format: cell-based, bovine
Method: (§1) H) Northern Blot Analysis—Total RNA was isolated using acid-guanidinium thiocyanate, and Northern blot analysis was performed. Total RNA (20 μg) was electrophoresed through 1% formaldehyde-agarose gels and then transferred to a nylon membrane. ^32P-Labeled cDNA probes were generated by use of labeling kits (Megaprime DNA labeling systems, Amersham Pharmacia Biotech). After ultraviolet cross-linking using a UV cross-linker (Stratagene, La Jolla, Calif.), blots were pre-hybridized, hybridized, and washed in 0.5×SSC, 5% SDS at 65° C. with 4 changes over 1 h. All signals were analyzed using a PhosphorImager, and lane loading differences were normalized.
(§2) I) Analysis of CTGF mRNA Half-life—CTGF mRNA half-life experiments were carried out using BREC and BRPC. […] Transcription was inhibited by the addition of actinomycin D (5 μg/ml).

[2] = tested on: VEGF-induced CTGF mRNA expression; assay: Effect on VEGF-induced CTGF mRNA expression in BRPC; format: cell-based, bovine; details: for effect on VEGF-induced CTGF mRNA expression: pretreatment GF 109203X 1 μM or PD98059 20 μM
Method: as §1, §2

CTGF mRNA [3] = assay: CTGF mRNA expression by Northern blot analysis in BRPC; format: cell-based, bovine; details: for CTGF mRNA levels, maximum increase: 25 ng/ml, after 9 h
Method: (§3) Since BREC and BRPC may express both KDR and Flt1, we examined the effects of P1GF, a Flt1-specific ligand, on the induction of CTGF gene expression in vascular cells.
(§4) B) Cell Culture—Primary cultures of bovine retinal endothelial cells (BREC) and pericytes (BRPC) were isolated by homogenization and a series of filtration steps as described previously. BREC were subsequently cultured with endothelial cell basal medium supplemented with 10% plasma-derived horse serum, 50 mg/liter heparin, and 50 μg/ml endothelial cell growth factor. BRPC were cultured in Dulbecco's modified Eagle's medium with 5.5 mM glucose and 20% fetal bovine serum. Cells were cultured in 5% CO2 at 37° C., and media were changed every 3 days. Cells were characterized for their homogeneity by immunoreactivity with anti-factor VIII antibody for BREC and with monoclonal antibody 3G5 for BRPC. […] Only cells from passages 2 through 7 were used for the experiments.
as §1

CTGF protein [4] = details: BRPC, 25 ng/ml, after 10 h
Method: (§5) E) Western Blot Analysis—Immunoprecipitated proteins or 30 μg of total cell lysates were subjected to SDS-gel electrophoresis and electrotransferred to nitrocellulose membrane (Bio-Rad). The membrane was soaked in blocking buffer (phosphate-buffered saline containing 0.1% Tween 20 and 5% bovine serum albumin) for 1 h at room temperature and incubated with primary antibody overnight at 4° C. followed by incubation with horseradish peroxidase-conjugated secondary antibody (Amersham Pharmacia Biotech). Visualization was performed using the enhanced chemiluminescence detection system (ECL, Amersham Pharmacia Biotech) per the manufacturer's instructions.

Akt = tested on: Akt
Method: as §5

Erk = tested on: Erk
Method: as §5

CTGF protein [5] = assay: CTGF protein expression by Western blot analysis in BREC; format: cell-based, bovine; details: for CTGF protein expression increase: VEGF 25 ng/ml, TGF-β1 10 ng/ml
Method: as §5

KDR = target: T1, KDR (Bos taurus, UniProt A0AAA9SPC9); assay: Immunoblot of KDR immunoprecipitates from BREC (phosphotyrosine, PI3-kinase p85); format: cell-based, bovine
T1 construct: endogenous in cells; host or cells: primary bovine retinal endothelial cells (BREC)
T1 sequence (A0AAA9SPC9 20-1356): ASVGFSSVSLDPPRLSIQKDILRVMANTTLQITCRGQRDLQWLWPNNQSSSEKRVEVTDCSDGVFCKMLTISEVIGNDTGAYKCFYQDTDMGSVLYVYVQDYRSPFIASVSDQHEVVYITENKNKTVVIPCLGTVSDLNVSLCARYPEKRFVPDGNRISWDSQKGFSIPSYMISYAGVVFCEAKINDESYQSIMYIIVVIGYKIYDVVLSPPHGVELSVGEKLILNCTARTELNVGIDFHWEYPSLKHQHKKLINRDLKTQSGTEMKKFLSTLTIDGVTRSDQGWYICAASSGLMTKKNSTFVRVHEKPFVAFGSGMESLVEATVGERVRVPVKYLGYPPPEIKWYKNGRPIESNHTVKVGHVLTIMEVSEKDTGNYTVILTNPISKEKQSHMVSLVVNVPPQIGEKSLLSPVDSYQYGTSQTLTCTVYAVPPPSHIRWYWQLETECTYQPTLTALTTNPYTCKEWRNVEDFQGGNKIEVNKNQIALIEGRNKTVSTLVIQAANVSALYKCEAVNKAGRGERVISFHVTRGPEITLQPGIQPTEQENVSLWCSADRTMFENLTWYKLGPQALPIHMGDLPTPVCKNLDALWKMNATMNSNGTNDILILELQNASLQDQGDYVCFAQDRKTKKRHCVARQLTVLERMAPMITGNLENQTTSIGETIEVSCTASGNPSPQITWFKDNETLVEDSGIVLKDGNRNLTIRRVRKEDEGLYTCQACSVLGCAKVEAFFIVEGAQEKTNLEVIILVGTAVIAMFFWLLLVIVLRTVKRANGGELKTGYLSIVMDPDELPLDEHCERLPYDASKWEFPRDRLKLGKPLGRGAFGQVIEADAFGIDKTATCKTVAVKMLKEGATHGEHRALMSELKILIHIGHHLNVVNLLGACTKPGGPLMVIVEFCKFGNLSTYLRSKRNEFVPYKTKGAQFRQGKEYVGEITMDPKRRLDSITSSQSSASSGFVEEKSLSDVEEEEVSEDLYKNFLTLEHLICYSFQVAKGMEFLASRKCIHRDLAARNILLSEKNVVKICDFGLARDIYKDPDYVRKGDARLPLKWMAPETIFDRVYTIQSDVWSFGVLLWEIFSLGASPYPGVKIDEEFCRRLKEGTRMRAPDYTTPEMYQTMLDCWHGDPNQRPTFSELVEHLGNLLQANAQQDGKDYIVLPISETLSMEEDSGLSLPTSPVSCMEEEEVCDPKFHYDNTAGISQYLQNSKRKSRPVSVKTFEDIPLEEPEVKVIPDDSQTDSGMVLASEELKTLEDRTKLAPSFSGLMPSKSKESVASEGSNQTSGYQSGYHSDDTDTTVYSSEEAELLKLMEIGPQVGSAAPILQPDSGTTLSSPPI
Method: (§6) D) Immunoprecipitation—Cells were washed three times with cold phosphate-buffered saline and solubilized in 200 μl of lysis buffer (1% Triton X-100, 50 mmol/liter HEPES, 10 mmol/liter EDTA, 10 mmol/liter sodium pyrophosphate, 100 mmol/liter sodium fluoride, 1 mmol/liter sodium orthovanadate, 1 μg/ml aprotinin, 1 μg/ml leupeptin, and 2 mmol/liter phenylmethylsulfonyl fluoride). After centrifugation at 12,000 rpm for 10 min, 1.0 mg of protein was subjected to immunoprecipitation. To clear the protein extract, protein A-Sepharose (20 μl of a 50% suspension) was added to the cell lysates, after which they were incubated for 1 h, followed by centrifugation and collection of the supernatant. A specific rabbit anti-KDR or Flt1 antibody was added and rocked at 4° C. for 2 h; 20 μl of protein A-Sepharose was then added, and the sample was rocked for another 2 h at 4° C. For denaturation, protein A-Sepharose antigen-antibody conjugates were separated by centrifugation, washed five times, and boiled for 3 min in Laemmli sample buffer.
as §5

Flt1 [6] = target: T2, Flt1 (Bos taurus, UniProt F1MDD9); assay: Immunoblot of Flt1 immunoprecipitates from BRPC (phosphotyrosine, PI3-kinase p85); format: cell-based, bovine
T2 construct: endogenous in cells; host or cells: primary bovine retinal pericytes (BRPC)
T2 sequence (F1MDD9 1-1251): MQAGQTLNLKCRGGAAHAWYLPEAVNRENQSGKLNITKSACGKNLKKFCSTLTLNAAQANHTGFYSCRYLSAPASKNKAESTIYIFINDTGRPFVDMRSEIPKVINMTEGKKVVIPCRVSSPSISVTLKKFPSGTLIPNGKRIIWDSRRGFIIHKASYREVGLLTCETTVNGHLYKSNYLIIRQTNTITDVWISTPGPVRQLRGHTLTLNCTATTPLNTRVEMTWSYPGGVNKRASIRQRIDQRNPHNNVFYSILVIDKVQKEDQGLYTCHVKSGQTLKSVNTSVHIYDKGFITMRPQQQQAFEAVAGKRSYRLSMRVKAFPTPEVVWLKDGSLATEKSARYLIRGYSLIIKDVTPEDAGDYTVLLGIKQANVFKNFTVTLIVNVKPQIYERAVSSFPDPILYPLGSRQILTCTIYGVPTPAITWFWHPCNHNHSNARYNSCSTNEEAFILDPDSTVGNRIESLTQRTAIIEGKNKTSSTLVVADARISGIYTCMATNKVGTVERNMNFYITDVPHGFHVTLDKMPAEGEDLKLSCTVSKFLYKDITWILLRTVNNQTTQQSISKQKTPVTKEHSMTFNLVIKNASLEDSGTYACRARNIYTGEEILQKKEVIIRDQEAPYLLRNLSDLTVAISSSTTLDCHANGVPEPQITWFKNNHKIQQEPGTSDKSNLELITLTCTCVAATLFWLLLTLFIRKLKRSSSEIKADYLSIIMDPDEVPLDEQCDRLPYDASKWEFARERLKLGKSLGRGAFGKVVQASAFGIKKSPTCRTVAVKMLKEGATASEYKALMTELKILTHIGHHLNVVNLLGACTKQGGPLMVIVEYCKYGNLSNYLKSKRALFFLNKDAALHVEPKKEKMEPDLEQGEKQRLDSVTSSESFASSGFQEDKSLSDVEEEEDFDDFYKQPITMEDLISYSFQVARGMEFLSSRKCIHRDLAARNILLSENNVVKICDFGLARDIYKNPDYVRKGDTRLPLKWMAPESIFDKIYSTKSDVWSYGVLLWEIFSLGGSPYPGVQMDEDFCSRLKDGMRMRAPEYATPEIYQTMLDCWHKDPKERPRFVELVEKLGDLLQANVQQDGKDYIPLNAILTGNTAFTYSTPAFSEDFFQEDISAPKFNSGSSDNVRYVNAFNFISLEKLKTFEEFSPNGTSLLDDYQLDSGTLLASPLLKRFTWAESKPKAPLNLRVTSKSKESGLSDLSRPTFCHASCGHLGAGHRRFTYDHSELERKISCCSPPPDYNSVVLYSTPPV
Method: as §6

Flt1 [7] = target: Flt1 (Homo sapiens, UniProt P17948); details: known value; cited from earlier work
Sequence of Flt1 (Homo sapiens, UniProt P17948) (P17948 27-1338, species assumed): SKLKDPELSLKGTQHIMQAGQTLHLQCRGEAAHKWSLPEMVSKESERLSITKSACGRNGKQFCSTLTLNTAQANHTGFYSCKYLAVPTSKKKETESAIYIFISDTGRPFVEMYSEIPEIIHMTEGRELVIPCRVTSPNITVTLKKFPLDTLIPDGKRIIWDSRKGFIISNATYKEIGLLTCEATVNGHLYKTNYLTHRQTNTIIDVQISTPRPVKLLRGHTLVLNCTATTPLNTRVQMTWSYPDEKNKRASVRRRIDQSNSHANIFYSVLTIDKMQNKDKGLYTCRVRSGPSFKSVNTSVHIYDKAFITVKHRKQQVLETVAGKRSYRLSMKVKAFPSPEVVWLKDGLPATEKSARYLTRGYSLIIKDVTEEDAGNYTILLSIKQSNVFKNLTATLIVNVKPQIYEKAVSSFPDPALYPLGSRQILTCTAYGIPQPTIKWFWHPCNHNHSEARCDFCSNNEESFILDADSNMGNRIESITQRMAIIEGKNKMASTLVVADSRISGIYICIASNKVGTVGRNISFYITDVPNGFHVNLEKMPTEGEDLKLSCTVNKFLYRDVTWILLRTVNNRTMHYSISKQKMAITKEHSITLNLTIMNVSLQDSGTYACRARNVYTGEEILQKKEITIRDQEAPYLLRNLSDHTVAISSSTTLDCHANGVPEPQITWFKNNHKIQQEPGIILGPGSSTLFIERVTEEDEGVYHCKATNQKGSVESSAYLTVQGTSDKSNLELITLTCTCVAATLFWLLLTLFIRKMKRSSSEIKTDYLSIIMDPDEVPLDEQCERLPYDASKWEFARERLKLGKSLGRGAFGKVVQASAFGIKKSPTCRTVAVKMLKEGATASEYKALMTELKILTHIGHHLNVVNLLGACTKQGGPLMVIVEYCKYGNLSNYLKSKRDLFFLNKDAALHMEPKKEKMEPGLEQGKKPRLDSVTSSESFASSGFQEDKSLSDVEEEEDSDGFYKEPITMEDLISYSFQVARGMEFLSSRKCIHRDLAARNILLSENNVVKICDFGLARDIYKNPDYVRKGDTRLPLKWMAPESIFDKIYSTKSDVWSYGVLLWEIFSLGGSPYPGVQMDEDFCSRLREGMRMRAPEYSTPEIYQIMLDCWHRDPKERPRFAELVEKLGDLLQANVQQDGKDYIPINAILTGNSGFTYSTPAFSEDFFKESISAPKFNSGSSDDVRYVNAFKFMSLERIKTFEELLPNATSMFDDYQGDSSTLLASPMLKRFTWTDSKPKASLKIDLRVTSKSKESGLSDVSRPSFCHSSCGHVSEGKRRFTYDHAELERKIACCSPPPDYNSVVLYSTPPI

CTGF mRNA [8] = assay: CTGF mRNA expression by Northern blot analysis in BREC; format: cell-based, bovine; details: for CTGF mRNA levels increase (comparative study): VEGF 25 ng/ml, TGF-β1 10 ng/ml
Method: as §3, §4, §1

[9] = target: KDR/Flk1 (VEGFR2) (bovine); assay: cell-based or functional assay
[10] = VEGF 25 ng/ml + cycloheximide 10 μg/ml, 6 h
[11] = inhibitor pretreatment (wortmannin 100 nM), VEGF 25 ng/ml 6 h
[12] = cycloheximide 10 μg/ml, VEGF 25 ng/ml, 6 h

placenta growth factor (P1GF) (ligand)
CTGF mRNA (Northern blot, BRPC, 25 ng/ml P1GF, peak after 9 h) (Flt1 (VEGFR1) (bovine)): 1.9 fold

CN(C)CCCn1cc(C2=C(c3c[nH]c4ccccc34)C(=O)NC2=O)c2ccccc21 [GF 109203X]
effect on VEGF-induced CTGF mRNA expression ([1]; pretreatment GF 109203X 1 μM or PD98059 20 μM, VEGF 25 ng/ml 6 h): Neither GF 109203X nor PD98059 had significant effects | effect on VEGF-induced CTGF mRNA expression ([2]; VEGF 25 ng/ml 6 h): Neither GF 109203X nor PD98059 had significant effects

VEGF
CTGF mRNA levels, maximum increase (CTGF mRNA [3]): 2.0±0.22 fold | concentration of maximal increase of CTGF mRNA (CTGF mRNA [3]; 6 h of stimulation): 25 ng/mL | lowest concentration with significant increase of CTGF mRNA (CTGF mRNA [3]; 6 h of stimulation): 0.25 ng/mL | CTGF mRNA increase with cycloheximide, compared with cycloheximide alone (CTGF mRNA [3]; [10]): 2.5±0.40 fold | level of CTGF protein (CTGF protein [4]): increased | phosphorylation of Akt (Akt; BREC): 3.1 fold | phosphorylation of Akt (Akt; BRPC): 2.6 fold | phosphorylation of Erk (Erk; BREC): 5.8 fold | Erk phosphorylation (Erk; BRPC): No effect | level of CTGF protein (CTGF protein [5]; 25 ng/ml, after 10 h): increased | CTGF protein expression increase (CTGF protein [5]): 2.5±0.4 fold | interactions of KDR and p85 subunit of PI3-kinase (KDR): promoted | tyrosine phosphorylation of KDR (KDR): promoted | interactions of Flt1 and p85 subunit of PI3-kinase (Flt1 [6]): increased | tyrosine phosphorylation of Flt1 (Flt1 [6]): increased | Kd (Flt1 [7]): 0.01 to 0.1 nM | CTGF mRNA levels, maximum increase (CTGF mRNA [8]; 25 ng/ml, after 6 h): 3.1±0.70 fold | concentration of maximal increase of CTGF mRNA (CTGF mRNA [8]; 6 h of stimulation): 25 ng/mL | lowest concentration with significant increase of CTGF mRNA (CTGF mRNA [8]; 6 h of stimulation): 0.25 ng/mL | CTGF mRNA increase with cycloheximide, compared with cycloheximide alone (CTGF mRNA [8]; [10]): 2.4±0.41 fold | CTGF mRNA levels increase (comparative study) (CTGF mRNA [8]): 3.0±0.3 fold

COC[C@H]1OC(=O)c2coc3c2[C@@]1(C)C1=C(C3=O)[C@@H]2CCC(=O)[C@@]2(C)C[C@H]1OC(C)=O [wortmannin]
inhibition of the effects of VEGF on CTGF mRNA expression [1, 11]: 88±6.5% | inhibition of the effects of VEGF on CTGF mRNA expression [2, 11]: 78±22%

Vascular endothelial growth factor (VEGF) (ligand)
CTGF mRNA (Northern blot, BREC, 25 ng/ml VEGF, maximum after 6 h) [9]: 3.1 fold | CTGF mRNA (Northern blot, BRPC, 25 ng/ml VEGF, maximum after 9 h) (Flt1 (VEGFR1) (bovine)): 2 fold

COc1cccc(-c2cc(=O)c3ccccc3o2)c1N [PD98059]
effect on VEGF-induced CTGF mRNA expression ([2]; VEGF 25 ng/ml 6 h): Neither GF 109203X nor PD98059 had significant effects

TGF-β1: transforming growth factor-β1, from R & D Systems
CTGF protein expression increase (CTGF protein [5]): 2.8±0.8 fold | CTGF mRNA levels increase (comparative study) (CTGF mRNA [8]): 3.3±0.5 fold

C[C@@H]1C[C@@H]([C@H](O)CC2CC(=O)NC(=O)C2)C(=O)[C@@H](C)C1 [Cycloheximide, cycloheximide]
effect on VEGF-induced increase of CTGF mRNA [1, 12]: did not prevent | effect on VEGF-induced increase of CTGF mRNA [2, 12]: did not prevent

B1: P1GF: placenta growth factor, a Flt1 receptor-specific ligand, from R & D Systems (protein, UniProt P49763 19-221, looked up)
Placenta growth factor: LPAVPPQQWALSAGNGSSEVEVVPFQEVWGRSYCRALERLVDVVSEYPSEVEHMFSPSCVSLLRCTGCCGDENLHCVPVETANVTMQLLKIRSGDRPSYVELTFSQHVRCECRHSPGRQSPDMPGDFRADAPSFLPPRRSLPMLFRMEWGCALTGSQSAVWPSSPVPEEIPRMHPGRNGKKQQRKPLREKMKPERCGDAVPRR
CTGF mRNA levels, maximum increase (CTGF mRNA [3]): 1.9±0.30 fold | interactions of KDR and p85 subunit of PI3-kinase (KDR): not | tyrosine phosphorylation of KDR (KDR): not | interactions of Flt1 and p85 subunit of PI3-kinase (Flt1 [6]): increased | tyrosine phosphorylation of Flt1 (Flt1 [6]): increased | CTGF mRNA levels after stimulation (CTGF mRNA [8]; 25 ng/ml): not affected
